In article PMC7768359, “Synthesis of Platinum(II) Complexes with Some 1-Methylnitropyrazoles and In Vitro Research on Their Cytotoxic Activity” (Pharmaceuticals, 2020):

Test system: HL-60 cells
Experiment: Cell cycle analysis (propidium iodide, flow cytometry)
Format: cell-based, human
Conditions: 80 µM, 48 h
Experimental: To establish how compounds 1 and 2 influence the cell cycle and cell death, the HL-60 human promyelocytic leukemia cell line was used. The results are outlined in the Figure 7 and Figure 8, respectively. […] This led to disturbances in the cell cycle progression, expressed as a significant decrease in G0/G1 and S phase, compared to the untreated control (Figure 7).
Cultured HL-60 cells (human acute promyelocytic leukemia) were seeded at a density of 2 × 10^5 cells/mL of culture medium on 24-well plates (Corning, NY, USA) to a final volume of 2 mL. […] The stock solutions of platinum derivatives were prepared as described above.
After 48 h of incubation, the cells were collected and washed in phosphate-buffered saline (PBS; HIIET, Wroclaw, Poland) supplemented with 2% of fetal bovine serum and counted in a hemocytometer. Then, the cells (1 × 10^6 per sample) were washed twice in cold PBS and fixed for 24 h in 70% ethanol at −20 °C. Following this, the cells were washed twice in PBS and incubated with RNAse (8 μg/mL, Fermentas GmbH, St. Leon-Rot, Germany) at 37 °C for 1 h. Finally, the cells were stained for 30 min with propidium iodide (0.5 mg/mL; Sigma-Aldrich, Steinheim, Germany) at 4 °C and the cellular DNA content was determined using a BD LSR Fortessa instrument (Becton Dickinson, San Jose, CA, USA) and WinMDI 2.8 software. The experiment was repeated at least three times.

## Cn1cc([N+](=O)[O-])c[n+]1[Pt@SP2-2]([Cl])([Cl])[n+]1cc([N+](=O)[O-])cn1C [Compound 1, cis-dichloridobis(1-methyl-4-nitropyrazole)platinum(II)]
  cell death (Sub-G1) and cell cycle progression of HL-60 cells: induced cell death (Sub-G1)
